Assay results taken from ChEMBL document CHEMBL3877281, “Extending the structure-activity relationship study of marine natural ningalin B analogues as P-glycoprotein inhibitors” (Eur J Med Chem, 2017).

How the values were obtained:
Homo sapiens [1] = species: Homo sapiens; experiment: Inhibition of P-gp in human MDA435/LCC6MDR cells assessed as potentiation of paclitaxel-induced cytotoxicity at 1 uM measured after 5 days by Cell Titer 96 Aqueous assay relative to paclitaxel alone; type: cell-based
[2] = Inhibition of P-gp in human MDA435/LCC6MDR cells assessed as reduction of doxorubicin cytotoxic IC50 by half after 5 days by Cell Titer 96 Aqueous assay; type: cell-based; conditions: 120 h
Homo sapiens [3] = species: Homo sapiens; experiment: Potency index, ratio of EC50 for verapamil to EC50 for test compound for inhibition of P-gp in human MDA435/LCC6MDR cells assessed as reduction of paclitaxel cytotoxic IC50 by half; type: cell-based
[4] = Inhibition of P-gp in human MDA435/LCC6MDR cells assessed as reduction of paclitaxel cytotoxic IC50 by half measured after 5 days by Cell Titer 96 Aqueous assay; type: cell-based; conditions: 120 h
Homo sapiens [5] = species: Homo sapiens; experiment: Potency index, ratio of EC50 for verapamil to EC50 for test compound for inhibition of P-gp in human MDA435/LCC6MDR cells assessed as reduction of vinblastine cytotoxic IC50 by half; type: cell-based
P-gp [6] = experiment: Selectivity index, ratio of IC50 for cytotoxicity against mouse L929 cells to EC50 for inhibition of P-gp in human MDA435/LCC6MDR cells assessed as reduction of vinblastine cytotoxic IC50 by half; type: toxicity, cell-based; conditions: probe vinblastine, read-out: Ratio IC50/EC50
P-gp [7] = experiment: Selectivity index, ratio of IC50 for cytotoxicity against mouse L929 cells to EC50 for inhibition of P-gp in human MDA435/LCC6MDR cells assessed as reduction of vincristine cytotoxic IC50 by half; type: toxicity, cell-based; conditions: probe vincristine, read-out: Ratio IC50/EC50
Homo sapiens [8] = species: Homo sapiens; experiment: Inhibition of P-gp in human MDA435/LCC6MDR cells assessed as increase in rhodamine-123 accumulation at 2 uM measured after 150 mins by fluorescence spectrophotometric method relative to control; type: cell-based
[9] = Inhibition of P-gp in human MDA435/LCC6MDR cells assessed as increase in doxorubicin accumulation to half of parental LCC6 cells measured after 150 mins by fluorescence spectrophotometric method; type: cell-based; conditions: MDA-435/LCC6, 2.5 h
Homo sapiens [10] = species: Homo sapiens; experiment: Potency index, ratio of EC50 for verapamil to EC50 for test compound for inhibition of P-gp in human MDA435/LCC6MDR cells assessed as reduction of vincristine cytotoxic IC50 by half; type: cell-based
P-gp [11] = experiment: Selectivity index, ratio of IC50 for cytotoxicity against mouse L929 cells to EC50 for inhibition of P-gp in human MDA435/LCC6MDR cells assessed as reduction of doxorubicin cytotoxic IC50 by half; type: toxicity, cell-based; conditions: probe doxorubicin, read-out: Ratio IC50/EC50
Homo sapiens [12] = species: Homo sapiens; experiment: Inhibition of P-gp in human MDA435/LCC6MDR cells assessed as increase in doxorubicin accumulation at 2 uM measured after 150 mins by fluorescence spectrophotometric method relative to control; type: cell-based
[13] = Inhibition of P-gp in human MDA435/LCC6MDR cells assessed as reduction of vinblastine cytotoxic IC50 by half measured after 5 days by Cell Titer 96 Aqueous assay; type: cell-based; conditions: 120 h
Homo sapiens [14] = species: Homo sapiens; experiment: Potency index, ratio of EC50 for verapamil to EC50 for test compound for inhibition of P-gp in human MDA435/LCC6MDR cells assessed as reduction of doxorubicin cytotoxic IC50 by half; type: cell-based
P-gp [15] = experiment: Selectivity index, ratio of IC50 for cytotoxicity against mouse L929 cells to EC50 for inhibition of P-gp in human MDA435/LCC6MDR cells assessed as reduction of paclitaxel cytotoxic IC50 by half; type: toxicity, cell-based; conditions: probe paclitaxel, read-out: Ratio IC50/EC50
[16] = Cytotoxicity against mouse L929 cells measured after 3 days by MTS assay; type: toxicity
Homo sapiens [17] = species: Homo sapiens; experiment: Potency index, ratio of compound effect to verapamil effect for inhibition of P-gp in human MDA435/LCC6MDR cells assessed as increase in rhodamine-123 accumulation; type: cell-based
[18] = Inhibition of P-gp in human MDA435/LCC6MDR cells assessed as reduction of vincristine cytotoxic IC50 by half measured after 5 days by Cell Titer 96 Aqueous assay; type: cell-based; conditions: 120 h

Row | SMILES | fold change (FC) (Homo sapiens [1]) | further results
1 | COc1ccc(C2=C(c3ccc(OC)c(OC)c3)C(=O)N(Cc3cc(OC)c(OC)c(OC)c3)C2=O)cc1 | 5.1 | –
2 | COc1ccc(C2=C(c3ccc(C)cc3)C(=O)N(CC(=O)c3ccc(S(C)(=O)=O)cc3)C2=O)cc1OC | 2 | –
3 | COc1ccc(C2=C(c3ccc(OC)c(OC)c3)C(=O)N(Cc3ccc(OCc4ccccc4)cc3)C2=O)cc1OC | 4.2 | –
4 | COc1ccc(C2=C(c3ccc(OC)c(OC)c3)C(=O)N(Cc3ccc(OCc4ccccc4)c(OC)c3)C2=O)cc1OC | 9.3 | –
5 | COc1ccc(C(=O)CN2C(=O)C(c3cccc(OC)c3)=C(c3ccc(OC)c(OC)c3)C2=O)cc1 | 3.5 | –
6 | COc1ccc(C2=C(c3ccc(OC)c(OC)c3)C(=O)N(Cc3cc(OC)c(OC)c(OC)c3)C2=O)cc1OC | 13.8 | –
7 | COc1ccc(C2=C(c3ccc(OC)c(OC)c3)C(=O)N(Cc3ccc(S(C)(=O)=O)cc3)C2=O)cc1OC | 3.4 | –
8 | COc1ccc(C(=O)CN2C(=O)C(c3ccc(OC)c(OC)c3)=C(c3ccc(OC)c(OC)c3)C2=O)cc1 | 7.6 | –
9 | COc1ccc(C2=C(c3ccc(OC)c(OC)c3)C(=O)N(CC(=O)c3ccc(OCc4ccccc4)c(OC)c3)C2=O)cc1 | 22.1 | –
10 | COc1ccc(C2=C(c3ccc(OC)c(OC)c3)C(=O)N(CC(=O)c3ccc(OCc4cc(OC)c(OC)c(OC)c4Br)c(OC)c3)C2=O)cc1OC | 48 | EC50 [2]: 120 nM; Ratio EC50 (Homo sapiens [3]): 2 to 3.7; EC50 [4]: 165 nM; Ratio EC50 (Homo sapiens [5]): 2 to 3.7; selectivity ratio (P-gp [6]): > 730; selectivity ratio (P-gp [7]): > 758; fold change (FC) (Homo sapiens [8]): 4.8; EC50 [9]: 78 nM; Ratio EC50 (Homo sapiens [10]): 2 to 3.7; selectivity ratio (P-gp [11]): > 833; fold change (FC) (Homo sapiens [12]): 2.4; EC50 [13]: 137 nM; Ratio EC50 (Homo sapiens [14]): 2 to 3.7; selectivity ratio (P-gp [15]): > 606; IC50 at 3 days [16]: > 100000 nM; Ratio (Homo sapiens [17]): 1.7; EC50 [18]: 132 nM
11 | COc1ccc(C2=C(c3ccccc3)C(=O)N(CC(=O)c3ccc(OCc4ccccc4)c(OC)c3)C2=O)cc1OC | 5.9 | –
12 | COc1cc(C(=O)CN2C(=O)c3ccccc3C2=O)ccc1OCc1ccccc1 | 1.1 | –
13 | COc1ccc(C(=O)CN2C(=O)C(c3ccccc3)=C(c3ccc(OC)c(OC)c3)C2=O)cc1 | 2.6 | –
14 | COc1ccc(C(=O)CN2C(=O)C(c3ccc(OC)cc3)=C(c3ccc(OC)c(OC)c3)C2=O)cc1 | 2.7 | –
15 | COc1ccc(C2=C(c3ccc(OC)c(OC)c3)C(=O)N(CC(=O)c3ccc(S(C)(=O)=O)cc3)C2=O)cc1OC | 1.4 | –
16 | COc1ccc(C2=C(c3ccc(C)cc3)C(=O)N(Cc3ccc(S(C)(=O)=O)cc3)C2=O)cc1OC | 3 | –
17 | COc1ccc(C2=C(c3ccc(OC)c(OCc4ccccc4)c3)C(=O)N(Cc3cc(OC)c(OC)c(OC)c3)C2=O)cc1OC | 11.9 | –
18 | COc1cccc(C2=C(c3ccc(OC)c(OC)c3)C(=O)N(CC(=O)c3ccc(OCc4ccccc4)c(OC)c3)C2=O)c1 | 8.8 | –
19 | COc1ccc(CCN(C)CCCC(C#N)(c2ccc(OC)c(OC)c2)C(C)C)cc1OC (stereo unspecified) [VERAPAMIL] | – | IC50 at 3 days [16]: 89000 nM
20 | COc1ccc(C(=O)CN2C(=O)C(c3ccc(OC)c(OC)c3)=C(c3ccc(OCc4ccccc4)c(OC)c3)C2=O)cc1 | 4.5 | –
21 | COc1ccc(C(=O)CN2C(=O)c3ccccc3C2=O)cc1 | 1.3 | –
22 | COc1ccc(C2=C(c3ccc(OC)c(OC)c3)C(=O)N(CC(=O)c3ccc(OCc4ccccc4)c(OC)c3)C2=O)cc1OC | 39.8 | –
23 | COc1ccc(C2=C(SC)C(=O)N(CC(=O)c3ccc(OCc4ccccc4)c(OC)c3)C2=O)cc1OC | 1.4 | –
24 | COc1ccc(C2=C(c3ccc(OCc4ccccc4)c(OC)c3)C(=O)N(CC(=O)c3ccc(OCc4ccccc4)c(OC)c3)C2=O)cc1OC | 1.4 | –
25 | COc1cccc(C2=C(c3ccc(OC)c(OC)c3)C(=O)N(Cc3cc(OC)c(OC)c(OC)c3)C2=O)c1 | 11.4 | –
26 | COc1cc(CN2C(=O)c3ccccc3C2=O)cc(OC)c1OC | 1.2 | –
27 | COc1ccc(C2=CC(=O)N(CC(=O)c3ccc(OCc4ccccc4)c(OC)c3)C2=O)cc1OC | 1.4 | –
28 | COc1ccc(C2=C(c3ccccc3)C(=O)N(Cc3cc(OC)c(OC)c(OC)c3)C2=O)cc1OC | 7.1 | –
29 | COc1ccc(C2=C(c3ccc(C)cc3)C(=O)N(CC(=O)c3ccc(OCc4ccccc4)c(OC)c3)C2=O)cc1OC | 8.6 | –
